Data set [1] has as its system Ba/F3 cells expressing FLT3-D835Y. Nature of the data set: Ba/F3 FLT3-D835Y subcutaneous xenograft. It is filed as in vivo, mice. Particulars: up to 7 days. Here is the method:
(§1) Once tumor growth had been confirmed, mice xenografted with MV4–11 cells were monitored for 28 days; mice xenografted with Ba/F3 cells expressing FLT3 mutations were monitored for 7 days. Tumor diameter was measured using a caliper, and tumor volume was determined by calculating the volume of an ellipsoid using the formula: length × width^2 × 0.5. Body weight was measured using a standard balance. Data are expressed as mean ± SEM from n = 6 mice/group (MV4–11) and n = 5 mice/group (Ba/F3).
(§2) After tumor establishment, mice were divided into groups such that the mean tumor volume was approximately equal in each group.

Data set [2] deals with phospho-STAT5. Nature of the data set: Immunoblot for phosphorylated STAT5 / STAT5 in MV4-11 xenograft tumors. The class given is in vivo, mice. As to conditions: for Phospho-STAT5, % of baseline levels: 3 mg/kg. The source says: Detailed protocols can be found in the online resource.
After 1 month, mice were divided into groups, with each group having approximately the same mean tumor volume.
MV4-11 xenograft tumor protein samples were electrophoresed on 7.5% gels, transferred to PVDF membranes, and probed for phosphorylated-STAT and total STAT5 as described earlier with one alteration. Following detection of phosphorylated STAT5, the membrane was stripped using Restore™ Western Blot Stripping Buffer (Thermo Fisher Scientific) and then re-probed for total STAT5. Phosphorylation levels were normalized to total STAT5 levels in each group (3 mice/group) relative to the mean value of the control group (4 mice/group). Data are reported as mean ± SEM.

Data set [3] addresses T1, AXL (Homo sapiens, UniProt P30530).
T1 construct: purchased Carna Biosciences, Inc
Nature of the data set: Kinase inhibitory assay (TK-ELISA / off-chip MSA). It is filed as biochemical. As to conditions: 1 nM; single experiment. On the technique in general: An ELISA detects its analyte on a solid surface through an enzyme-linked reagent.
Procedure: These assays were conducted according to the manufacturer’s instructions. […] TK-ELISA and MSA assays were used to conduct IC50 studies for FLT3, LTK, AXL, and c-KIT; the HTRF® KinEASE™-TK assay (Sceti Medical Labo, Tokyo, Japan) was performed according to the manufacturer’s protocol to assess the IC50 value of echinoderm microtubule-associated protein-like 4-ALK (EML4-ALK; three individual experiments for each kinase).

The subject of data set [4] is MV4–11 cells. Kind of data set: CellTiter-Glo cell viability. The class given is cell-based. As to conditions: Homo sapiens, MV4-11, 120 h; 5 days of treatment; read-out: Growth inhibition mean IC50. Here is the method: A detailed protocol is provided in the online resource.
The assay was performed in either triplicate or quadruplicate. […] The geometric mean was calculated from three individual experiments.
On the technique in general: ATP-based viability assays read luminescence as a measure of living cells.

The test system of data set [5] is p-STAT5. Nature of the data set: Immunoblot of downstream FLT3 targets in MV4-11 cells. It is filed as cell-based. As to conditions: Homo sapiens. Here is the method: (§3) FLT3 immunoprecipitation and immunoblotting for all targets were performed following standard protocols. Detailed methods are provided in the online resource.
(§4) Cells were treated for 2 h prior to cell lysate preparation in RIPA buffer supplemented with phosphatase / protease inhibitors. Following sample preparation, protein lysates were electrophoresed on 7.5% gels and transferred to PVDF membranes.
(§5) All membranes were blocked using either Blocking One or Blocking One-P (Nacalai Tesque Inc., Kyoto, Japan) for 1 h prior to an overnight incubation with primary antibody. Membranes were incubated overnight at 4°C with one of the following antibodies: anti-FLT3 antibody (Abcam), anti-phosphorylated pan-tyrosine, anti-ERK, anti-phospho-ERK, anti-STAT5, anti-phospho-STAT5, anti-AKT, anti-phospho-AKT, anti-AXL, anti-phospho-AXL, or anti-actin. The membranes were then washed with 1× TBS Tween-20 (TBS-T) Buffer (Thermo Fisher Scientific Inc., Rockford, IL) and incubated with an appropriate HRP-linked secondary antibody (Cell Signaling Technology) for 1 h at room temperature. After a final wash, ECL Western Blotting Detection Reagent ECL-prime (GE Healthcare, Fairfield, CT) were applied to the membranes and signals were detected with a CCD camera (ImageQuant LAS4000; GE Healthcare). Signal intensity was then quantified using ImageQuant™ TL software (GE Healthcare). The study was performed once in triplicate, and the mean percentage of phosphorylated protein to total protein relative to that in vehicle-treated cells was calculated.

The test system of data set [6] is p-AKT. The data set is described as above. The class given is cell-based. Particulars: Homo sapiens. Here is the method:
as §3, §4, §5

Data set [7] has as its system p-ERK. The data set is described as above. The class given is cell-based. As to conditions: Homo sapiens. Here is the method: as §3, §4, §5
In data set [8] the target is T2, phosphorylated AXL (Homo sapiens, UniProt P30530).
T2 construct: expressed in transfected cells; host or cells: MV4-11-AXL cells (MV4-11 exogenously expressing AXL)
T2 sequence (P30530 26-894): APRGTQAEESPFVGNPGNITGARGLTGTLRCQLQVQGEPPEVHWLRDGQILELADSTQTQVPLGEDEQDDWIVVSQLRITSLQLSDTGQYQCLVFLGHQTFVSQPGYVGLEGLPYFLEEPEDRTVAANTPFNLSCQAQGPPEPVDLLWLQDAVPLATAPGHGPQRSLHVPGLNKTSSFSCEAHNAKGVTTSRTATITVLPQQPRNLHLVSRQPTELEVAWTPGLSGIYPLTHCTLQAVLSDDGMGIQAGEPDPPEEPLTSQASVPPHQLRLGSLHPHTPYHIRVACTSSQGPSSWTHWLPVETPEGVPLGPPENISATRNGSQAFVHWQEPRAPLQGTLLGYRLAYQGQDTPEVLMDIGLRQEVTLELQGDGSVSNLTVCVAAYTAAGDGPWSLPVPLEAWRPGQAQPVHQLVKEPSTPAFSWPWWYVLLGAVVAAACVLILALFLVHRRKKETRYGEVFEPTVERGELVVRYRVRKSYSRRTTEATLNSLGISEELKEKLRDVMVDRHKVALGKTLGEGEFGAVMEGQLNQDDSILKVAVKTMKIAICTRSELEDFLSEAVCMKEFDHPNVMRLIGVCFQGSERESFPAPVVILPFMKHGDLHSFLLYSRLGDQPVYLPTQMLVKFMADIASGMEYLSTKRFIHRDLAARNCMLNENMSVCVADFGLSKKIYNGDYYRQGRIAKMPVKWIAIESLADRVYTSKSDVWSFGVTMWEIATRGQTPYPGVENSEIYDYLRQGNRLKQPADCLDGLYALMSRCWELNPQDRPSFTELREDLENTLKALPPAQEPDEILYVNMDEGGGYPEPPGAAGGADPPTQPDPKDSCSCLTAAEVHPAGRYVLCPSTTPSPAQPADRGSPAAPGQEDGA
Kind of data set: Immunoblot of phospho-AXL in MV4-11-AXL cells. It is filed as cell-based. Particulars: 4 h, MV4–11 cells expressing exogenous AXL. Here is the method: Cells were treated for 4 h prior to cell lysate preparation in RIPA buffer supplemented with phosphatase / protease inhibitors. The protein lysates were subsequently electrophoresed on 7.5% gels and transferred to PVDF membranes.
as §5
Fig. S1. […] Protein lysates were collected in RIPA buffer and immunoblotting was performed to detect both phosphorylated and total levels of AXL (triplicate).
In general terms: Immunoblotting shows a protein as a band on a membrane.

Data set [9] can be described thus: Body weight in MV4–11 xenograft study. It is filed as in vivo, mice. As to conditions: 1–10 mg/kg/day oral, 28 days; any tested dose. Here is the method: as §1, §2
Setting [10] is: read-out: Kinase inhibition at the specified gilteritinib concentration (%), 0.1 nM, 2 h.
Setting [11] is: read-out: Kinase inhibition at the specified gilteritinib concentration (%), 1 nM, 2 h.
Where [12] appears, read: read-out: Kinase inhibition at the specified gilteritinib concentration (%), 10 nM, 2 h.

The structures appear in SMILES notation.

Broadly, the inhibition is the drop in the measured response relative to a control, in per cent. Higher therefore signals a strong effect. What is called IC50 is the concentration at which inhibition is half-maximal. Take `CCc1nc(C(N)=O)c(Nc2ccc(N3CCC(N4CCN(C)CC4)CC3)c(OC)c2)nc1NC1CCOCC1` [gilteritinib]: the “Antitumor effect (tumor volume)” value in data set [1] (10 mg/kg once-daily oral) is listed as “showed antitumor efficacy”; in data set [1] (30 mg/kg once-daily oral), “induced tumor regression”. Further, the “Phospho-STAT5, % of baseline levels” value in [2] (4 h and 8 h) is less than 20%; in data set [2] (24 h), “approximately 50%”. In addition, in [2] (4 h and 8 h after single dose of 6 mg/kg or 10 mg/kg), the “Phosphorylation level of STAT5 in tumors” value is on record as “almost completely abolished”. The “STAT5 phosphorylation level, % of baseline” value in [2] (24 h post drug, 6 mg/kg or 10 mg/kg) is recorded as approximately 20%. Further, the inhibition at 0.001 µM in data set [3] was more than 50%. Moreover, the IC50 in data set [4] was determined as 920 pM. Moreover, the activity at 0.0001 µM in data set [5] (setting [10]) was found to be 114%; in data set [6] (setting [10]), 65%; in data set [7] (setting [10]), 54%. Also, the activity at 0.001 µM in data set [5] (setting [11]) is 23%; in [6] (setting [11]), 48%; in [7] (setting [11]), 22%. The activity at 0.01 µM in [5] (setting [12]) was determined as 0%; in [6] (setting [12]), 9%; in data set [7] (setting [12]), 1%. The entries for the “Decrease of phosphorylated AXL levels” value in data set [8] (1 nM), in data set [8] (10 nM) and in data set [8] (100 nM) were 38%, 29% and 22%, respectively. Further, the Body weight entry in data set [9] was “not affected”.

For the origin of these results see publication PMC5613053 (Investigational New Drugs, 2017).
